Here are results for 11 compounds from patent publication US8106007B2, “Conjugates of a polypeptide and a pentasaccharide” (N.V. Organon, priority 2005, dated 2012).

Series [1] in a line: Pharmacokinetics in rat after 125I labeling, not corrected for dehalogenation. How it is done: (§1) After labeling, the conjugate was purified by gel filtration on Sephadex G25 and anion exchanger HiTrap Q10. […] In order to prevent accumulation of ^125I^− in the thyroid, rats were orally treated with 10 mg/kg potassium iodide prior to administration of compound.
The correct determination of the fate of ^125I-labeled conjugates might be affected aversely by metabolic intracellular endogenous dehalogenation to give free ^125I^− in circulation.

The next series has as its target hATIII (Homo sapiens, UniProt P01008). Description: Competitive hATIII binding assay using Biomolecular Interaction Analysis (BIA). As to conditions: for competitive binding potential to ATIII (in words): compared to parent pentasaccharide-spacer residue / parent peptide; for IC50: 15 nmol/L hATIII, compound 9 immobilised on chip, 25° C., read-out: IC50 BIA (competitive ATIII binding). How it is done:
The sensorgrams and report points were analysed with blanc flow cell subtraction using BIAevaluation 3.2. IC50 values were calculated using graphpad Prism 3.0.
Principle and aim of the test: Biomolecular Interaction Analysis (BIA) studies the interaction between (bio)molecules by covalent immobilisation of one of the interactants to a sensor chip surface, and injection of the other interactant in the continuous buffer flow over this surface. Binding is registered as a change in refractive index on this surface and is proportional to the molecular weight (Mw) of the interactants.
To study the interaction between hATIII and pentasaccharide conjugates, compound 9 is covalently coupled to the sensor chip surface. Binding of hATIII to the pentasaccharide generates a strong signal as a resultant of the difference in Mw between the bound (small) pentasaccharide ligand and the (large) hATIII analyte. Preincubated samples containing a constant concentration of hATIII and variable concentrations of free pentasaccharide or conjugate were injected over the surface. Binding of pentasaccharide or conjugate to ATIII during preincubation will result in a reduction of ATIII binding to the immobilised pentasaccharide. This competitive binding assay allows determination of IC50 values for each pentasaccharide conjugate.
Experimental procedure: Compound 9 is covalently coupled to a CM5 sensor chip by amine coupling at pH 8.5. […] The unreacted hydroxysuccinimide groups are reacted with ethanolamine for 7 min. The surface is regenerated by three short injections of 5 μL 5 mol/L NaCl, at a flow rate of 25 μL/min.
A concentration series of hATIII was tested to estimate a sensitive concentration for inhibition (at 80% of maximum binding). At a flow rate of 20 μL/min three minute injections were carried out at both blanc and immobilised surface in series at 25° C. A report point is generated at 170 s. The surface is regenerated by a 12 s injection of 5 mol/L NaCl.
The hATIII injection or report point without pentasaccharide conjugate is set at 100% binding. The relative % binding of the pentasaccharides and the conjugates compared to maximum binding was used to generate a sigmoidal curve (with variable slope) by plotting Log [concentration] vs. % binding from which the IC50 values were derived.

The conditions of series [2]: species not given; cited from earlier work.
For series [3] the following is noted: in rat, i.v., Chan et al. 1991; cited from earlier work.
Another series deals with glucose levels. Description: Glucose suppression test in vivo in rats. Also noted: species or system rat. As to conditions: i.v. doses of 24 and 48 nmol/kg (FIG. 21, 22).
For series [4] the following is noted: rat, in vivo, iv. How it is done: as §1
Another series addresses T1, rat ATIII (Rattus norvegicus, UniProt A0A8I5Y9G3).
T1 construct: from tissue; host or cells: plasma of male Wistar rats
Description: Determination of (poly)peptide-pentasaccharide-ATIII complex in rat plasma (sandwich ELISA). The format is binding. As to conditions: plasma 1 min after i.v. 3.5 nmol/kg in rat.

For series [5] the following is noted: rat, in vivo, iv, 3.5 nmol/kg.
Description: The human Enzyme-Linked Immuno-Sorbent Assay (ELISA) has been developed to measure human insulin in human and rat plasma or buffer system. In this way the ELISA could be used to determine the insulin concentration in plasma samples derived from pharmacokinetic experiments.
The assay is based on the immunochemical “sandwich” principle using two monoclonal antibodies, i.e. a solid phase bound, capture antibody and a detection antibody which is labeled with horseradish peroxidase (HRP).
The plate was washed to remove unbound enzyme-labeled antibody and subsequently the 3,3′,5,5′-tetramethylbenzidine/H2O2 substrate solution was added. The reaction was stopped with 0.5 M sulphuric acid and the microtiter plate was read spectrophotometrically at 450 nm. The intensity of colour is directly proportional to the concentration of insulin. Then for each plasma sample the mean concentration (mol/L) of insulin was determined.
The rats were anaesthetized by inhalation of a mixture of O2/N2O/isoflurane, after which the right jugular vein was cannulated. […] Blood was centrifuged after which the plasma was siphoned off and stored at −20° C. until use. The concentration of the tested compounds in the plasma samples were determined using the human ELISA against a calibration curve which was made of the stock solution of the tested compound itself. The concentration in the samples was expressed in nmol/L and the kinetic parameters were calculated with the noncompartment model of WinNonlin.
[6] abbreviates: Table 6, rat, i.v., 125I label, not corrected for dehalogenation, n = 3.

Read-outs that look alike come from different tables or passages of the source. Where a SMILES comes first, the peptide text is derived from it. [ ]: non-standard residue; d: D form. The star is where a group is joined. X1 = CO[C@H]1O[C@H](COS(=O)(=O)O)[C@@H](O[C@@H]2O[C@@H](C(=O)O)[C@@H](O[C@H]3O[C@H](COS(=O)(=O)O)[C@@H](O[C@@H]4O[C@H](C(=O)O)[C@@H](O[C@H]5O[C@H](COS(=O)(=O)O)[C@@H](OCCOCCOCCOCCNC(=O)COCCOCCOCCOCCSC6CC(=O)N(CCCC(=O)*)C6=O)[C@H](OC)[C@H]5OC)[C@H](OC)[C@H]4OC)[C@H](OS(=O)(=O)O)[C@H]3OS(=O)(=O)O)[C@H](OC)[C@H]2OC)[C@H](OS(=O)(=O)O)[C@H]1OS(=O)(=O)O; d(hArg(Et2)) = CCN=C(NCC)NCCCC[C@@H](N)C(=O)O; hArg(Et2) = CCN=C(NCC)NCCCC[C@H](N)C(=O)O; dPhe(4-Cl) = N[C@H](Cc1ccc(Cl)cc1)C(=O)O; d2Nal = N[C@H](Cc1ccc2ccccc2c1)C(=O)O; d3Pal = N[C@H](Cc1cccnc1)C(=O)O

Sequence of hATIII (P01008 33-464): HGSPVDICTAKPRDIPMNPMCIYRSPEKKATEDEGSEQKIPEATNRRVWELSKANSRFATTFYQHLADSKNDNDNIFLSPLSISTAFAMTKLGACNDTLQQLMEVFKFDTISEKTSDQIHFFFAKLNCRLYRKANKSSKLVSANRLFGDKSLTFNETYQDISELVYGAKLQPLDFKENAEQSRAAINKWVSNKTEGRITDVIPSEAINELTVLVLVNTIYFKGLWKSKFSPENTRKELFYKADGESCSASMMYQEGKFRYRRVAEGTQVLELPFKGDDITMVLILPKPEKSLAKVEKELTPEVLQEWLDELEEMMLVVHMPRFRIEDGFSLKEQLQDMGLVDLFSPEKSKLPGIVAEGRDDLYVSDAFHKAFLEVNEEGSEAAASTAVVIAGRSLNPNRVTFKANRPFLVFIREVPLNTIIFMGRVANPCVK
T1 sequence (A0A8I5Y9G3 35-465): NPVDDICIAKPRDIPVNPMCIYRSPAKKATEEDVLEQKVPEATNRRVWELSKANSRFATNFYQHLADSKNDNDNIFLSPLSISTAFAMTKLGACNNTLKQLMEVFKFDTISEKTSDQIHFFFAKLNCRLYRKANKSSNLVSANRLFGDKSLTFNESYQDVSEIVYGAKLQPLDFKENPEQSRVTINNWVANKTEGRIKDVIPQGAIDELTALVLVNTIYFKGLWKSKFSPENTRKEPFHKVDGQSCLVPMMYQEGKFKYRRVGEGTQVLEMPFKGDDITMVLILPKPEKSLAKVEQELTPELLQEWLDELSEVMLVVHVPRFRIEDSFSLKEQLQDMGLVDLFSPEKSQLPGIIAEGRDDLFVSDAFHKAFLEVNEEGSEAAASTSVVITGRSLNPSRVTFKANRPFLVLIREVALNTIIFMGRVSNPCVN
Description for glucose levels: The animals were fasted overnight (16 hours) prior to the experiment. In the morning blood was sampled from all the rats by cutting a little piece of the tail, after which the blood was dropped on a test strip and the glucose levels were measured with an ACCU-Check Sensor blood glucose monitor (Roche Diagnostics). […] At various time intervals blood samples were taken by removing the crusted blood, after which the glucose content was determined immediately as described.

In series [1] (rat, in vivo, iv), `CC[C@H](C)[C@H](NC(=O)[C@H](CCC(N)=O)NC(=O)[C@H](Cc1c[nH]cn1)NC(=O)[C@H](C)N)C(=O)N[C@@H](Cc1ccc(O)cc1)C(=O)N[C@@H](CCC(N)=O)C(=O)N[C@@H](Cc1ccccc1)C(=O)N[C@H](C(=O)N[C@@H](CC(=O)O)C(=O)N[C@@H](CCCCN)C(=O)N[C@@H](CC(=O)O)C(=O)N[C@@H](CCCCN)C(=O)N[C@@H](CC(=O)O)C(=O)N[C@@H](CC(N)=O)C(=O)N[C@H](C(=O)N[C@@H](C)C(=O)N1CCC[C@H]1C(=O)N[C@@H](CCCNC(=N)N)C(=O)N[C@@H](CO)C(=O)N[C@@H](CCCCN)C(=O)N[C@H](C(=O)N[C@@H](CO)C(=O)N1CCC[C@H]1C(=O)N[C@@H](CCC(N)=O)C(=O)NCC(=O)N[C@@H](Cc1ccc(O)cc1)C(N)=O)[C@@H](C)CC)C(C)C)[C@@H](C)O` [ADM(27-52)] (H-AHQIYQFTDKDKDNVAPRSKISPQGY-NH2; N-terminus and C-terminus assumed) registered a Cl of 112 ± 9 mL/h and a Vss of 556 ± 48 ml/rat. The “competitive binding potential to ATIII (in words)” value on hATIII was “no significant competitive binding to ATIII”.

Take `COC[C@H]1O[C@H](OC)[C@H](OS(=O)(=O)O)[C@@H](OC)[C@@H]1O[C@@H]1O[C@@H](C(=O)O)[C@@H](O[C@H]2O[C@H](COS(=O)(=O)O)[C@@H](O[C@@H]3O[C@H](C(=O)O)[C@@H](O[C@H]4O[C@H](COS(=O)(=O)O)[C@@H](OCCOCCOCCOCCN)[C@H](OC)[C@H]4OC)[C@H](OC)[C@H]3OC)[C@H](OS(=O)(=O)O)[C@H]2OS(=O)(=O)O)[C@H](OC)[C@H]1OC` [Compound 7]: the IC50 – broadly, the point on the concentration scale where inhibition reaches its midpoint – at hATIII was 96 nM.

For `COC1OC(COS(=O)(=O)O)C(OC2OC(C(=O)O)C(OC3OC(COS(=O)(=O)O)C(OC4OC(C(=O)O)C(OC5OC(COS(=O)(=O)O)C(OCCOCCOCCOCCN)C(OC)C5OC)C(OC)C4OC)C(OS(=O)(=O)O)C3OS(=O)(=O)O)C(OC)C2OC)C(OC)C1OS(=O)(=O)O` (stereo not drawn) [Compound 8], the IC50 at hATIII is 58 nM.

Take `COC1OC(COS(=O)(=O)O)C(OC2OC(C(=O)O)C(OC3OC(COS(=O)(=O)O)C(OC4OC(C(=O)O)C(OC5OC(COS(=O)(=O)O)C(OCCOCCOCCOCCN)C(OC)C5OC)C(OC)C4OC)C(OS(=O)(=O)O)C3OS(=O)(=O)O)C(OC)C2OC)C(OS(=O)(=O)O)C1OS(=O)(=O)O` (stereo not drawn) [Compound 9]: the IC50 on hATIII came out at 5.5 nM.

Turning to `CC[C@H](C)[C@H](NC(=O)[C@H](CCC(N)=O)NC(=O)[C@H](Cc1c[nH]cn1)NC(=O)[C@H](C)NC(=O)CCCN1C(=O)CC(SCCOCCOCCOCCOCC(=O)NCCOCCOCCOCCO[C@H]2[C@H](OC)[C@@H](OC)[C@@H](O[C@H]3[C@H](OC)[C@@H](OC)[C@H](O[C@H]4[C@H](OS(=O)(=O)O)[C@@H](OS(=O)(=O)O)[C@@H](O[C@H]5[C@H](OC)[C@@H](OC)[C@H](O[C@H]6[C@H](OS(=O)(=O)O)[C@@H](OS(=O)(=O)O)[C@@H](OC)O[C@@H]6COS(=O)(=O)O)O[C@H]5C(=O)O)O[C@@H]4COS(=O)(=O)O)O[C@@H]3C(=O)O)O[C@@H]2COS(=O)(=O)O)C1=O)C(=O)N[C@@H](Cc1ccc(O)cc1)C(=O)N[C@@H](CCC(N)=O)C(=O)N[C@@H](Cc1ccccc1)C(=O)N[C@H](C(=O)N[C@@H](CC(=O)O)C(=O)N[C@@H](CCCCN)C(=O)N[C@@H](CC(=O)O)C(=O)N[C@@H](CCCCN)C(=O)N[C@@H](CC(=O)O)C(=O)N[C@@H](CC(N)=O)C(=O)N[C@H](C(=O)N[C@@H](C)C(=O)N1CCC[C@H]1C(=O)N[C@@H](CCCNC(=N)N)C(=O)N[C@@H](CO)C(=O)N[C@@H](CCCCN)C(=O)N[C@H](C(=O)N[C@@H](CO)C(=O)N1CCC[C@H]1C(=O)N[C@@H](CCC(N)=O)C(=O)NCC(=O)N[C@@H](Cc1ccc(O)cc1)C(N)=O)[C@@H](C)CC)C(C)C)[C@@H](C)O` (stereo partly drawn) [Compound 39] (X1-AHQIYQFTDKDKDNVAPRSKISPQGY-NH2), in series [1] (setting [6]), the Cl was determined as 5.0 ± 0.1 mL/h and the Vss was 80 ± 3.3 ml/rat.

With `[125IH]` [^125I^−], the elimination half-life in series [1] (rats, control, data not shown) worked out at 192 min.

With `CCN=C(NCC)NCCCC[C@H](NC(=O)[C@H](CC(C)C)NC(=O)[C@@H](CCCCNC(=NCC)NCC)NC(=O)[C@H](Cc1ccc(O)cc1)NC(=O)[C@H](CO)NC(=O)[C@@H](Cc1cccnc1)NC(=O)[C@@H](Cc1ccc(Cl)cc1)NC(=O)[C@@H](Cc1ccc2ccccc2c1)NC(C)=O)C(=O)N1CCC[C@H]1C(=O)N[C@H](C)C(N)=O` [ganirelix] (Ac-[d2Nal][dPhe(4-Cl)][d3Pal]SY[d(hArg(Et2))]L[hArg(Et2)]P[dA]-NH2), in series [2], the “t ½” value was 720 min. For the same compound, the “competitive binding potential to ATIII (in words)” value on hATIII was “no competitive binding to ATIII”. Also, in series [3], the T½ was 84 min.

With `C[C@@H](O)[C@@H]1NC(=O)[C@H](CCCCN)NC(=O)[C@@H](Cc2c[nH]c3ccccc23)NC(=O)[C@H](Cc2ccccc2)NC(=O)[C@@H](NC(=O)[C@H](N)Cc2ccccc2)CSSC[C@@H](C(=O)N[C@H](CO)[C@@H](C)O)NC1=O` [octreotide], the “t ½” value in series [2] is 102 min.

As for calcitonin, the “t ½” value in series [2] is listed as 20 min.

For insulin detemir, the “blood glucose lowering activity (comparative example)” value in the series on glucose levels was “less pronounced and less prolonged activity”.

Consider “recH insulin: recombinant human insulin (batch SIHR017, from Diosynth)”, for which, in series [4], the AUCinf is listed as 481 h · cpm/0.1 mL, the Cl came to 69.3 mL/min/kg, the mean residence time (MRT) (commonly the average time that molecules of a dose stay in the body) was determined as 30 min and the Vss was 2.225 L/kg. The “binding to rat ATIII in circulation (complex detected)” value with rat ATIII is recorded as “cannot form a complex with ATIII”. Also, in series [5], the Cl was 13.3 ± 2 mL/min/kg, the MRT is 0.84 ± 6 min, the T½ eli is 1.98 ± 0.06 min and the Vss came to 0.012 ± 0.002 L/kg.
